Reference: patent US6440443B1, “Microencapsulation formulations of cadusafos” (priority 1998, dated 2002)

Test system: root-knot nematode (RKN), Meloidogyne incognita
Experiment: Root-knot nematode control on tomato, pots infested 48 hours after soil treatment (set 1), gall rating
Type: in vivo
Details: rating scale 0-10
Method: Formulations AA to FF, excluding DD, were tested for efficacy and persistence in soil for controlling root-knot nematode (RKN), Meloidogyne incognita, on tomato. A three-week old tomato (Lycopersicon esculentum, var “Rutgers”) was planted in a 10 cm square pot containing a nonsterile 50:50 sand:soil mixture. Ten replicate pots (five replicates for two sets of tests) were prepared for each rate of application of test formulation. Stock dispersions of each of the test formulations were prepared by dispersing a sufficient amount of test material in 100 ml of water to give rates of application of 0.25, 0.5, 1, and 2 kg a.i./ha. Each pot received 10 ml of the appropriate suspension on the surface immediately around the tomato, and a control treatment for each of the two experimental set of pots received only water. Pots were also prepared as above with the same rates of the 100 ME cadusafos formulation and technical cadusafos. The RKN eggs used in the experiment were separated from a gelatinous matrix by vigorously shaking the roots of heavy galled tomato plants for four minutes in a 1% aqueous sodium hypochlorite solution. The resulting egg suspension was rapidly poured through nested 60, 325, and 500 mesh sieves. The eggs were collected on the 500 mesh sieve and gently rinsed with water to remove any excess sodium hypochlorite. The eggs were taken up in water, and the resulting aqueous suspension was appropriately diluted with water to give about 2000 eggs per plant which results in an effective inoculant level of about 1000 infective larvae per pot. The eggs were counted using a dissecting microscope. All the pots were infested with nematodes by pippetting the inoculum into the openings around the roots of the previously treated tomato transplants. Pots infested with nematodes 48 hours after soil treatment, hereafter referred to as “set 1”. Pots for examination of residual activity, hereafter referred to as “set 2”, were treated and maintained in the greenhouse for seven days prior to nematode infestations. Upon nematode infestation, the pots were maintained in the greenhouse for 28 days and monitored for phytotoxicity symptoms. At the conclusion of the 28 day period, the soil was washed away from the tomato plants roots and rated according to the following scheme: […]

CCOP(=O)(SC(C)CC)SC(C)CC (stereo not shown) [Technical]
Mean Root-Knot Gall Rating (infested 48 hours after treatment, rate 0.25 Kg/Ha): 2.4 | Mean Root-Knot Gall Rating (infested 48 hours after treatment, rate 0.5 Kg/Ha): 1.2 | Mean Root-Knot Gall Rating (second printing of Table 7, 48 hours after treatment, rate 0.25 Kg/Ha): 2.4 | Mean Root-Knot Gall Rating (second printing of Table 7, 48 hours after treatment, rate 0.5 Kg/Ha): 1.2
